Experimental data from ChEMBL document CHEMBL1136399, “Anti-AIDS agents 54. A potent anti-HIV chalcone and flavonoids from genus Desmos” (Bioorg Med Chem Lett, 2003).
Values after ≈ are worked out from the molar mass of the structure shown.

Key:
H9 [1] = test: Effective concentration against HIV-1 replication in H9 lymphocytic cells; No suppression; format: functional, cell-based, Homo sapiens
H9 [2] = test: Concentration that inhibits uninfected H9 cell growth by 50%.; format: functional, cell-based; settings: Homo sapiens
H9 [3] = test: Effective concentration against HIV-1 replication in H9 lymphocytic cells; format: functional, cell-based; settings: Homo sapiens
[4] = Therapeutic index determined by ratio of IC50 to EC50; settings: read-out: Therapeutic index
H9 [5] = test: Concentration that inhibits uninfected H9 cell growth by 50%.; Did not dissolve; format: functional, cell-based, Homo sapiens
H9 [6] = test: Concentration that inhibits uninfected H9 cell growth by 50%.; Not dissolved; format: functional, cell-based, Homo sapiens

Row | SMILES | EC50 (H9 [1]) | IC50 (H9 [2]) | further results
1 | COc1cc2oc(-c3ccccc3)cc(=O)c2c(O)c1O | Not Active | 11.5 µg/mL (≈ 40.5 µM) | 
2 | Cc1cn([C@H]2C[C@H](N=[N+]=[N-])[C@@H](CO)O2)c(=O)[nH]c1=O [ZIDOVUDINE] |  |  | EC50 (H9 [3]): 0.0221 µg/mL (≈ 0.0827 µM)
3 | COc1c(C)c(O)c(/C(O)=C/C(=O)c2ccccc2)c(O)c1C=O |  | 10.7 µg/mL (≈ 32.6 µM) | selectivity ratio [4]: 489; EC50 (H9 [3]): 0.022 µg/mL (≈ 0.067 µM)
4 | Cc1c(O)c(C)c2c(c1O)C(=O)C[C@@H](c1ccccc1)O2 [DEMETHOXYMATTEUCINOL] |  | 20.8 µg/mL (≈ 73.2 µM) | selectivity ratio [4]: 4.18; EC50 (H9 [3]): 4.97 µg/mL (≈ 17.5 µM)
5 | COc1c(C)c(O)c(C=O)c2c1C(O)C[C@@H](c1ccccc1)O2 (stereo not given in full) | Not Active | 24.2 µg/mL (≈ 77 µM) | 
6 | COc1c(C)c(O)c(C=O)c2c1C(=O)C[C@@H](c1ccccc1)O2 |  | 108 µg/mL (≈ 346 µM) | selectivity ratio [4]: 9.85; EC50 (H9 [3]): 11 µg/mL (≈ 35.2 µM)
7 | CC1=C(O)C(C)(C)C2=C(C(=O)C[C@@H](c3ccccc3)O2)C1=O | Not Active | 1.89 µg/mL (≈ 6.34 µM) | 
8 | COc1c(C)c(O)c2c(c1C)O[C@H](c1ccccc1)CC2=O | Not Active | 1.77 µg/mL (≈ 5.93 µM) | 
9 | COC1=C(C)C(O)=C(C(=O)/C=C/c2ccccc2)C(=O)C1(C)C [DESMOSDUMOTIN C] | Not Active | 2.29 µg/mL (≈ 7.33 µM) | 
10 | Cc1c(O)c(C=O)c(O)c2c(=O)cc(-c3ccccc3)oc12 |  |  | IC50 (H9 [5]): Insoluble
11 | COc1c(C)c(O)c2c(c1C=O)O[C@@H](C)[C@H](C(=O)c1ccccc1)C2=O | Not Active | 18.9 µg/mL (≈ 53.3 µM) | 
12 | Cc1c(O)c(C=O)c2oc(-c3ccccc3)cc(=O)c2c1O |  |  | IC50 (H9 [6]): Insoluble
13 | Cc1c(O)c(C=O)c(O)c(/C(O)=C/C(=O)c2ccccc2)c1O | Not Active | 18.8 µg/mL (≈ 59.8 µM) | 
14 | COc1c(C)c(O)c2c(=O)cc(-c3ccccc3)oc2c1C | Not Active | 19.8 µg/mL (≈ 66.8 µM) | 
15 | Cc1c(O)c(C=O)c(O)c2c1O[C@H](c1ccccc1)CC2=O |  | 104 µg/mL (≈ 349 µM) | selectivity ratio [4]: 45.2; EC50 (H9 [3]): 2.3 µg/mL (≈ 7.71 µM)
16 | Cc1c(O)c(C=O)c2c(c1O)C(=O)C[C@@H](c1ccccc1)O2 | Not Active | 2.15 µg/mL (≈ 7.21 µM) | 
17 | COc1cc2oc(-c3ccccc3)cc(=O)c2c(O)c1OC [MOSLOFLAVONE] | Not Active | 20.2 µg/mL (≈ 67.7 µM) | 
